Where a name gives a salt, the structure may show the parent alone. Read-outs that look alike come from different tables or passages of the source.
System: acetylcholine-induced abdominal constriction
Assay: animal or person
Type: in vivo, mice
Settings: for inhibition in vivo at 100 mg/kg: 100 mg./kg. oral; for ED50: read-out: Ach ED50; for inhibition in vivo at 300 mg/kg: 300 mg./kg. oral; for inhibition in vivo at 10 mg/kg: 10 mg./kg. i.v.; for inhibition in vivo at 3 mg/kg: 3 mg./kg. i.v.
Text: The test procedures used to determine the analgesic activities of the compounds have been described in detail in the prior art and are as follows: The acetylcholine-induced abdominal constriction test, which is a primary analgesic screening test designed to measure the ability of a test agent to suppress acetylcholine-induced abdominal constriction in mice, described by Collier et al., Brit. J. Pharmacol. Chemotherap. 32, 295 (1968); a modification of the anti-bradykinin test, which is also a primary analgesic screening procedure, described by Berkowitz et al., J. Pharmacol. Exptl. Therap. 177, 500-508 (1971), Blane et al., J. Pharm. Pharmacol. 19, 367-373 (1967), Botha et al., Eur. J. Pharmacol. 6, 312-321 (1969) and Deffenu et al., J. Pharm. Pharmacol. 18, 135 (1966); and the rat paw flexion test, described by Kuzuna et al., Chem. Pharm. Bull., 23, 1184-1191 (1975), Winter et al., J. Pharm. Exptl. Therap., 211, 678-685 (1979) and Capetola et al., J. Pharm. Exptl. Therap. 214, 16-23 (1980).
Unless noted otherwise, all data were obtained on oral administration and are expressed either as the ED50 or as the percent inhibition at a given dose level (thus 30/100 or 30% inhibition at […].)
In some instances, the compounds were retested two or more times, and ED50 values were calculated for each series of repeat tests. In such instances, each of the ED50 values so-obtained is given in a series of values, thus 6, 28, 30, 43 in the case of the species of Example 1AW in the acetylcholine-induced abdominal constriction test.

[1] = Mus musculus, po, read-out: Ach percent inhibition
[2] = Mus musculus, iv, read-out: Ach percent inhibition
[3] = Mus musculus, iv, 30 mg./kg. i.v., read-out: Ach percent inhibition
[4] = Mus musculus, sc, 30 mg./kg. s.c., read-out: Ach percent inhibition
[5] = Mus musculus, po, 30 mg./kg. oral, read-out: Ach percent inhibition

Compound | inhibition in vivo at 100 mg/kg [1] [%] | ED50 (Mus musculus, po) [mg/kg] | further results
COc1ccc(C(=O)c2c(C)n(CCN3CCN(C=O)CC3)c3ccccc23)cc1 [Example 3S, 1-[2-(4-formyl-1-piperazinyl)ethyl]-2-methyl-3-(4-methoxybenzoyl)-1H-indole] | 40 |  | 
Cc1c(C(=O)c2cccc3c2OCO3)c2ccccc2n1CCN1CCOCC1 [Example 1CA] | 20 |  | 
Cc1c(C(=O)c2ccc(N3CCCC(O)C3)cc2)c2ccccc2n1CCN1CCOCC1 (centres unmarked) [Example 26B] | 40 |  | 
COc1ccc(C(=O)c2c(C)n(CC(O)CN)c3ccccc23)cc1 (centres unmarked) [Example 32, 1-(3-amino-2-hydroxy-1-propyl)-2-methyl-3-(4-methoxybenzoyl)-1H-indole] |  | 85 | 
Cc1c(C(=O)c2ccco2)c2ccccc2n1CCN1CCOCC1 [Example 1C] |  | 126 | 
Cc1c(C(=O)c2ccc3c(c2)OCO3)c2ccccc2n1CCN1CCOCC1 [Example 1R] |  | 198 | 
Cc1c(C(=O)C2CCCCC2)c2ccccc2n1CCN1CCOCC1 [Example 2Q] | 20 |  | 
COc1ccc(C(=O)c2c(C)n(CCN3CCCC(NC(C)=O)C3)c3ccccc23)cc1 (centres unmarked) [Example 3N, 1-[2-(3-acetylamino-1-piperidinyl)ethyl]-2-methyl-3-(4-methoxybenzoyl)-1H-indole] | 40 |  | 
COc1ccc2c(c1)c(C(=O)c1ccccc1)cn2CCN1CCOCC1 [Example 1AK] |  |  | inhibition in vivo at 300 mg/kg [1]: 40%; inhibition in vivo at 550 mg/kg (Mus musculus, po, 550 mg./kg. oral, read-out: Ach percent inhibition): 47%
COc1ccc(C(=O)c2c(C)n(CCCN3CCSCC3)c3ccc(F)cc23)cc1.Cl [Example 3AF, 5-fluoro-2-methyl-3-(4-methoxybenzoyl)-1-[3-(4-thiomorpholinyl)propyl]-1H-indole hydrochloride] |  | 139 | 
COc1ccc(C(=O)c2c(C)n(CCN3CCOCC3)c3c(OC)cccc23)cc1 [Example 1N] |  | 35.8 | 
COc1ccc(C(=O)c2c(C)n(CCN3CCOCC3)c3ccccc23)cc1 [Example 1J] |  |  | Ach ED50 (i.v.): 6.7 mg/kg; Ach ED50 (oral): 86 mg/kg
COCCNCCn1c(C)c(C(=O)c2ccc(OC)cc2)c2ccccc21 [Example 3L] |  | 44 | 
COc1ccc(C(=O)c2c(Cl)n(CCN3CCOCC3)c3ccccc23)cc1 [Example 2AB] |  | 91 | 
COc1ccc(C(=O)c2c(C)n(CCN3CCCNCC3)c3ccccc23)cc1 [Example 3T] |  | 53 | 
Cc1c(C(=O)c2ccc(F)cc2F)c2ccccc2n1CCN1CCOCC1 [Example 2AN] |  | 90 | 
Cc1cccc2c(C(=O)c3ccccc3)cn(C(C)CN3CCOCC3)c12 (centres unmarked) [Example 2J] |  | 60 | 
Cc1c(C(=O)c2cccc3ccccc23)c2ccccc2n1CCN1CCN(C)CC1 [Example 3J] |  |  | inhibition in vivo at 10 mg/kg [2]: 30%
COc1ccc(C(=O)c2c(C)n(CCN3CCN(C(C)=O)CC3)c3ccccc23)cc1.O=C(O)/C=C\C(=O)O [Example 23A, 1-[2-(4-acetyl-1-piperazinyl)ethyl]-2-methyl-3-(4-methoxybenzoyl)-1H-indole maleate (1:1)] |  | 85 | 
Cc1c(C(=O)c2ccc(Br)cc2)c2ccccc2n1CCN1CCOCC1 [Example 2BE] | 30 |  | 
Cc1c(C(=O)c2cc(Cl)cc(Cl)c2)c2ccccc2n1CCN1CCOCC1 [Example 2AU] | 30 |  | 
COc1ccc2cc(C(=O)c3c(C)n(CCN4CCOCC4)c4ccccc34)ccc2c1 [Example 1BJ] | 0 |  | 
COc1ccc(C(=O)c2c(C)n(CC(O)CN(C)C)c3ccccc23)cc1 (centres unmarked) [Example 31L] |  | 32 | 
Cc1cccc(C)c1C(=O)c1c(C)n(CCN2CCOCC2)c2ccccc12 [Example 1CL] | 30 |  | 
COc1cccc(C(=O)c2c(C)n(CCN3CCOCC3)c3ccccc23)c1 [Example 1AH] |  | 85 | 
COc1ccc(C(=O)c2c(C)n(CCCCCN3CCOCC3)c3ccc(F)cc23)cc1 [Example 1CI] | 70 |  | 

Compound | inhibition in vivo at 100 mg/kg [1] [%] | ED50 (Mus musculus, po) [mg/kg] | further results
Cc1c(C(=O)c2ccccc2)c2cc(O)ccc2n1CCN1CCOCC1 [Example 30, 3-benzoyl-5-hydroxy-2-methyl-1-[2-(4-morpholinyl)ethyl]-1H-indole] | 10 |  | 
Cc1c(C(=O)C=Cc2ccccc2)c2ccccc2n1CCN1CCOCC1 [Example 2W] |  | 72 | 
COc1ccc(C(=O)c2c(C)n(CCN)c3ccccc23)cc1.O=C(O)/C=C\C(=O)O [Example 25B, 1-(2-aminoethyl)-2-methyl-3-(4-methoxybenzoyl)-1H-indole maleate] |  | 42 | 
Cc1c(C(=O)c2ccccc2Cl)c2ccccc2n1C(C)CN1CCOCC1 (centres unmarked) [Example 2AZ] |  | 26 | 
CCCOc1ccc(C(=O)c2c(C)n(CCN3CCOCC3)c3ccccc23)cc1 [Example 1BG] |  |  | inhibition in vivo at 300 mg/kg [1]: 33%
COc1ccc(C(=O)C=Cc2c(C)n(CCN3CCOCC3)c3ccccc23)cc1 [Example 19, 1-{2-methyl-1-[2-(4-morpholinyl)ethyl]-1H-indol-3-yl}-3-(4-methoxyphenyl)propen-3-one monohydrochloride] | 40 |  | 
COc1ccc(C(=O)c2c(C)n(CCN3CCOCC3)c3ccccc23)cc1 [Example 1H] | 33 |  | inhibition in vivo at 3 mg/kg [2]: 0%; inhibition in vivo at 10 mg/kg [2]: 30%; inhibition in vivo at 30 mg/kg [3]: 100%; inhibition in vivo at 300 mg/kg [1]: 71%; inhibition in vivo at 30 mg/kg [4]: 2%
Cc1c(C(=O)c2ccc(Br)cc2)c2cc(F)ccc2n1CCCN1CCOCC1 [Example 2AR] | 50 |  | 
Cc1[nH]c2ccccc2c1C(=O)c1ccccc1-c1ccccc1 [Preparation 1AK] |  |  | inhibition in vivo at 100 mg/kg (Mus musculus, po, Table D, formula II intermediates (Preparations), read-out: Ach percent inhibition): 20%
CCC(=O)Nc1ccc(C(=O)c2c(C)n(CCN3CCOCC3)c3ccccc23)cc1 [Example 5F] |  | 76 | 
Cc1c(C(=O)c2ccc(-n3ccnc3)cc2)c2cc(F)ccc2n1CCCN1CCOCC1 [Example 26F] |  | 61 | 
CCNCCCn1c(C)c(C(=O)c2ccc(OC)cc2)c2cc(F)ccc21 [Example 3AG] |  | 42 | 
Cc1c(C(=O)c2cccc3ccccc23)c2ccccc2n1CCN1CCOC(C)C1 (centres unmarked) [Example 3M] | 10 |  | 
Cc1c(C(=O)c2ccc(C=O)cc2)c2ccccc2n1CCN1CCOCC1 [Example 11, 2-methyl-3-(4-formylbenzoyl)-1-[2-(4-morpholinyl)ethyl]-1H-indole] |  |  | inhibition in vivo at 30 mg/kg [5]: 20%; inhibition in vivo at 30 mg/kg [4]: 13%
COc1ccc(C(=NO)c2c(C)n(CCN3CCOCC3)c3ccccc23)cc1 [Example 13A, 2-methyl-3-(4-methoxybenzoyl)-1-[2-(4-morpholinyl)ethyl]-1H-indole oxime] |  | 139 | 
COc1ccc(C(=O)c2c(C)n(CCN3CCOCC3)c3ccccc23)c(F)c1 [Example 2AP] |  | 27 | 
COc1ccc(C(=O)c2c(C)n(CCCN3CCCCC3)c3ccc(F)cc23)cc1 [Example 1BN] |  | 36 | 
COc1ccc(C(=O)c2c(C)n(CC(O)CN=[N+]=[N-])c3ccccc23)cc1 (centres unmarked) [Example 31J, 1-(3-azido-2-hydroxy-1-propyl)-2-methyl-3-(4-methoxybenzoyl)-1H-indole] | 10 |  | 
Cc1c(C(=O)c2ccc(F)cc2)c2cc(F)ccc2n1CCCN1CCOCC1 [Example 2AE] | 20 |  | 
Cc1c(C(=O)c2ccc(N3CCOCC3)cc2)c2ccccc2n1CCN1CCOCC1 [Example 26G] | 20 |  | 
COc1ccc(C(=O)c2c(C)n(CCN3CCCC(N)C3)c3ccccc23)cc1.O=C(O)/C=C\C(=O)O.O=C(O)/C=C\C(=O)O (centres unmarked) [Example 27C, 1-[2-(3-amino-1-piperidinyl)ethyl]-2-methyl-3-(4-methoxybenzoyl)-1H-indole maleate (1:2)] |  | 29.4 | 
Cc1c(C(=O)c2cccc(Cl)c2)c2ccccc2n1CCN1CCOCC1 [Example 2AX] | 0 |  | 
Cc1c(C(=O)c2ccc(C#N)cc2)c2ccccc2n1CCN1CCOCC1 [Example 1AF, 2-methyl-3-(4-cyanobenzoyl)-1-[2-(4-morpholinyl)ethyl]-1H-indole] |  | 200 | inhibition in vivo at 3 mg/kg [2]: 0%; inhibition in vivo at 10 mg/kg [2]: 0%; inhibition in vivo at 30 mg/kg [3]: 30%
COc1ccc(C(=O)c2c(C)n(CCCN3CCN(C(C)=O)CC3)c3ccc(F)cc23)cc1.CS(=O)(=O)O [Example 23B, 5-fluoro-2-methyl-3-(4-methoxybenzoyl)-1-[3-(4-acetyl-1-piperazinyl)propyl]-1H-indole methanesulfonate] |  | 39 | 
CC(CN1CCOCC1)n1cc(C(=O)c2cccn2C)c2ccccc21 (centres unmarked) [Example 2F] | 40 |  | inhibition in vivo at 30 mg/kg [5]: 20%; inhibition in vivo at 300 mg/kg [1]: 33%
CCCc1ccc(C(=O)c2c(C)n(CCN3CCOCC3)c3ccccc23)cc1 [Example 2AC] | 30 |  | 
